# Measurements taken from patent publication US9113629B2, “4-amino-6-(4-substituted-phenyl)-picolinates and 6-amino-2-(4-substituted-phenyl)-pyrimidine-4-carboxylates and their use as herbicides” (DOW AGROSCIENCES LLC, priority 2013, dated 2015).
# Where two headings read alike, the source gives them in different places.
# Columns and labels:
# [1] = tested on: LOLSS: ryegrass including, Italian ryegrass (Lolium multiflorum), rigid ryegrass (Lolium rigidum), annual ryegrass (Lolium multiflorum subsp. Gaudini); experiment: Post-emergent Test III, herbicidal activity in wheat and barley; type: in vivo; conditions: probit analysis
# Method in brief: (§1)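 Plants at the second to third true-leaf stage, grown in a greenhouse at about 18/17 °C with a 14 h photoperiod, were sprayed post-emergence at 187 L/ha with the high rate and ½× to 1/16× serial dilutions in an acetone/DMSO/crop-oil/surfactant carrier. Injury was rated visually at 21 d on a 0–100% scale, and GR20–GR90 were derived by probit analysis.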
# [2] = as above; type: in vivo, Lolium multiflorum, Lolium rigidum; conditions: Lolium multiflorum, post-emergence, 504 h, read-out: Visual Growth Reduction (%) 21 Days After Application LOLSS; for pest or weed control at 35 g/ha: 35 g ai/ha; for pest or weed control at 70 g/ha: 70 g ai/ha; for pest or weed control at 140 g/ha: 140 g ai/ha
# Method in brief: as §1
# [3] = tested on: BROTE: downy brome (Bromus tectorum); experiment: as above; type: in vivo; conditions: for pest or weed control at 35 g/ha / pest or weed control at 70 g/ha / pest or weed control at 140 g/ha: Bromus tectorum, post-emergence, 504 h, read-out: Visual Growth Reduction (%) 21 Days After Application BROTE; for pest or weed control at 35 g/ha: 35 g ai/ha; for pest or weed control at 70 g/ha: 70 g ai/ha; for pest or weed control at 140 g/ha: 140 g ai/ha; for GR50 BROTE / GR80 BROTE: probit analysis, 21 days after application; for GR50 BROTE: dose for growth reduction of 50 percent; for GR80 BROTE: dose for growth reduction of 80 percent
# Method in brief: as §1
# [4] = tested on: ALOMY: black-grass (Alopecurus myosuroides); experiment: as above; type: in vivo; conditions: for pest or weed control at 35 g/ha / pest or weed control at 70 g/ha / pest or weed control at 140 g/ha: Alopecurus myosuroides, post-emergence, 504 h, read-out: Visual Growth Reduction (%) 21 Days After Application ALOMY; for pest or weed control at 35 g/ha: 35 g ai/ha; for pest or weed control at 70 g/ha: 70 g ai/ha; for pest or weed control at 140 g/ha: 140 g ai/ha; for GR50 ALOMY / GR80 ALOMY: probit analysis, 21 days after application; for GR50 ALOMY: dose for growth reduction of 50 percent; for GR80 ALOMY: dose for growth reduction of 80 percent
# Method in brief: as §1
# [5] = tested on: PAPRH: common poppy (Papaver rhoeas); experiment: as above; type: in vivo; conditions: for pest or weed control at 35 g/ha / pest or weed control at 70 g/ha / pest or weed control at 140 g/ha: Papaver rhoeas, post-emergence, 504 h, read-out: Visual Growth Reduction (%) 21 Days After Application PAPRH; for pest or weed control at 35 g/ha: 35 g ai/ha; for pest or weed control at 70 g/ha: 70 g ai/ha; for pest or weed control at 140 g/ha: 140 g ai/ha; for GR50 PAPRH / GR80 PAPRH: probit analysis
# Method in brief: as §1
# [6] = Table 9, dose for 50 percent growth reduction, 21 d
# [7] = Table 9, dose for 80 percent growth reduction, 21 d
# [8] = dose for growth reduction of 50 percent, 21 days after application
# [9] = dose for growth reduction of 80 percent, 21 days after application
# [10] = Table 8, dose for 50 percent growth reduction, 21 d
# [11] = Table 8, dose for 80 percent growth reduction, 21 d
Compound,"GR50 LOLSS [1, 6]","GR80 LOLSS [1, 7]","pest or weed control at 35 g/ha ([2]; Table 9, post-emergent, 21 d)","pest or weed control at 70 g/ha ([2]; Table 9, post-emergent, 21 d)",pest or weed control at 35 g/ha [2],pest or weed control at 70 g/ha [2],pest or weed control at 140 g/ha [2],pest or weed control at 35 g/ha [3],pest or weed control at 70 g/ha [3],pest or weed control at 140 g/ha [3],GR50 BROTE [3],GR80 BROTE [3],pest or weed control at 35 g/ha [4],pest or weed control at 70 g/ha [4],pest or weed control at 140 g/ha [4],GR50 ALOMY [4],GR80 ALOMY [4],also measured
C#Cc1ccc(-c2nc(N)c(OC)c(C(=O)O)n2)cc1 [Compound 28],>140 g ai/ha,>140 g ai/ha,0 to 29%,0 to 29%,–,–,–,–,–,–,–,–,–,–,–,–,–,–
COC(=O)c1nc(-c2ccc(Br)cc2F)nc(N)c1OC [Compound 35],126 g ai/ha,>140 g ai/ha,0 to 29%,30 to 44%,–,–,–,–,–,–,–,–,–,–,–,–,–,–
COc1c(N)nc(-c2ccc(Br)cc2F)nc1C(=O)O [Compound 46],118 g ai/ha,>140 g ai/ha,0 to 29%,30 to 44%,–,–,–,–,–,–,–,–,–,–,–,–,–,"pest or weed control at 140 g/ha ([2]; Table 9, post-emergent, 21 d): 45 to 59%"
Nc1cc(-c2ccc(Br)c(F)c2F)nc(C(=O)O)c1Cl [Compound 91],–,–,–,–,0 to 29%,0 to 29%,0 to 29%,45 to 59%,45 to 59%,30 to 44%,29 g ai/ha,>140 g ai/ha,45 to 59%,45 to 59%,45 to 59%,98 g ai/ha,>140 g ai/ha,"GR50 LOLSS [1, 8]: >140 g ai/ha; GR80 LOLSS [1, 9]: >140 g ai/ha; pest or weed control at 35 g/ha [5]: 95 to 100%; pest or weed control at 70 g/ha [5]: 95 to 100%; pest or weed control at 140 g/ha [5]: 95 to 100%; GR50 PAPRH [5, 8]: 1 g ai/ha; GR80 PAPRH [5, 9]: 1 g ai/ha"
"Nc1cc(-c2ccc(Br)c(F)c2)nc(C(=O)O)c1Cl [Compound 110, 4-Amino-6-(4-bromo-3-fluorophenyl)-3-chloropicolinic acid]",–,–,–,–,–,–,–,–,–,–,–,–,–,–,–,–,–,"pest or weed control at 35 g/ha ([5]; Table 8, post-emergent, 21 d): 95 to 100%; pest or weed control at 70 g/ha ([5]; Table 8, post-emergent, 21 d): 95 to 100%; GR50 PAPRH [5, 10]: 1 g ai/ha; GR80 PAPRH [5, 11]: 1 g ai/ha"
"COc1c(N)nc(-c2ccc(Br)c(F)c2)nc1C(=O)O [Compound 113, 6-Amino-2-(4-bromo-3-fluorophenyl)-5-methoxypyrimidine-4-carboxylic acid]",–,–,–,–,–,–,–,–,–,–,–,–,–,–,–,–,–,"pest or weed control at 35 g/ha ([5]; Table 8, post-emergent, 21 d): 95 to 100%; pest or weed control at 70 g/ha ([5]; Table 8, post-emergent, 21 d): 95 to 100%; GR50 PAPRH [5, 10]: 1 g ai/ha; GR80 PAPRH [5, 11]: 1 g ai/ha"
C#Cc1ccc(-c2nc(N)c(OC)c(C(=O)O)n2)c(F)c1F [Compound 154],>140 g ai/ha,>140 g ai/ha,0 to 29%,0 to 29%,–,–,–,–,–,–,–,–,–,–,–,–,–,"pest or weed control at 140 g/ha ([2]; Table 9, post-emergent, 21 d): 0 to 29%"
Nc1cc(-c2ccc(Br)cc2)nc(C(=O)O)c1Cl [Compound 168],108 g ai/ha,>140 g ai/ha,0 to 29%,45 to 59%,–,–,–,–,–,–,–,–,–,–,–,–,–,–
COC(=O)c1nc(-c2ccc(F)c(F)c2F)c(F)c(N)c1Cl [Compound 186],–,–,–,–,0 to 29%,0 to 29%,0 to 29%,0 to 29%,0 to 29%,0 to 29%,>140 g ai/ha,>140 g ai/ha,0 to 29%,0 to 29%,0 to 29%,>140 g ai/ha,>140 g ai/ha,"GR50 LOLSS [1, 8]: >140 g ai/ha; GR80 LOLSS [1, 9]: >140 g ai/ha"
COC(=O)c1nc(-c2ccc(F)cc2)c(F)c(N)c1Cl [Compound 204],–,–,–,–,0 to 29%,0 to 29%,0 to 29%,0 to 29%,0 to 29%,30 to 44%,>140 g ai/ha,>140 g ai/ha,0 to 29%,45 to 59%,45 to 59%,105 g ai/ha,>140 g ai/ha,–
Nc1c(F)c(-c2ccc(Cl)c(F)c2)nc(C(=O)O)c1Cl [Compound 217],–,–,–,–,45 to 59%,60 to 74%,60 to 74%,75 to 84%,85 to 94%,85 to 94%,15 g ai/ha,33 g ai/ha,75 to 84%,85 to 94%,85 to 94%,12 g ai/ha,31 g ai/ha,"GR50 LOLSS [1, 8]: 32 g ai/ha; GR80 LOLSS [1, 9]: >140 g ai/ha; pest or weed control at 35 g/ha [5]: 95 to 100%; pest or weed control at 70 g/ha [5]: 95 to 100%; pest or weed control at 140 g/ha [5]: 95 to 100%; GR50 PAPRH [5, 8]: 1 g ai/ha; GR80 PAPRH [5, 9]: 1 g ai/ha"
